Source: article PMC6450621, “Changes of drug pharmacokinetics mediated by downregulation of kidney organic cation transporters Mate1 and Oct2 in a rat model of hyperuricemia” (PLoS ONE, 2019)
Where “and” joins values, the source holds several entries; their conditions need not be identical. Equal entries are not always repeated.

Columns and labels:
[1] = metformin; used for control and hyperuricemic rats; cited from earlier work
[2] = Pharmacokinetic study after intravenous administration in control and hyperuricemic rats (plasma, urine, kidney); details: for Kp, kidney: 4 h after iv metformin 30 mg/kg; for CL renal / concentration at 0 min / concentration at 0.5 min / concentration at 2 min / concentration at 5 min / concentration at 30 min / concentration at 60 min / AUC(0-t) / AUC(0-inf) / dose excreted at 10 min / dose excreted at 20 min / dose excreted at 30 min / dose excreted at 60 min / dose excreted at 120 min / dose excreted at 240 min / dose excreted: rat; for CL renal: plasma and urine, CLR; for CL renal / AUC(0-t) / AUC(0-inf): iv; for concentration at 0 min / concentration at 0.5 min / concentration at 2 min / concentration at 5 min / concentration at 30 min / concentration at 60 min / AUC(0-t) / AUC(0-inf): plasma; for concentration at 0 min / concentration at 0.5 min / concentration at 2 min / concentration at 5 min / concentration at 30 min / concentration at 60 min / dose excreted at 10 min / dose excreted at 20 min / dose excreted at 30 min / dose excreted at 60 min / dose excreted at 120 min / dose excreted at 240 min / dose excreted: intravenous; for concentration at 0 min / concentration at 0.5 min / concentration at 2 min / concentration at 5 min / concentration at 30 min / concentration at 60 min: Plasma concentration; for AUC(0-inf): AUCinf; for dose excreted at 10 min / dose excreted at 20 min / dose excreted at 30 min / dose excreted at 60 min / dose excreted at 120 min / dose excreted at 240 min / dose excreted: urine; for dose excreted at 10 min / dose excreted at 20 min / dose excreted at 30 min / dose excreted at 60 min / dose excreted at 120 min / dose excreted at 240 min: Urinary recovery (cumulative); for dose excreted: Urinary Recovery;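 on all read-outs here: Pentobarbital-anesthetized rats with cannulated bladder, jugular plasma, timed urine and saline kidney homogenate assayed by HPLC or LC-MS/MS, Kp as kidney over plasma level at 4 h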
Method: (§1) Rats were anesthetized with pentobarbital, and the bladder was cannulated with polyethylene tubing (inside diameter 0.5 mm, outside diameter 0.8 mm). […] Blood was drawn through the jugular vein, and plasma was obtained by centrifugation at 3,000 rpm for 10 min at 4°C. Urine was collected at the designated times. […] All samples were stored at -80°C until measurement.
(§2) If necessary, plasma and urine were diluted 10- to 100-fold and 10- to 10000-fold with saline, respectively, for high-performance liquid chromatography (HPLC) or liquid chromatography/tandem mass spectrometry (LC-MS/MS) measurement. […] Prepared samples were mixed for 1 min and centrifuged at 15,000 rpm for 5 min at 4°C. The resultant supernatant was used for LC-MS/MS analysis. The LC-MS/MS system consisted of a triple-quadrupole mass spectrometer (API 3200^TM, SCIEX, Foster City, CA) coupled with an ultrafast liquid chromatography system (LC-20AD, Shimadzu, Kyoto, Japan). […] For metformin, the mobile phase consisted of 0.1% formic acid and acetonitrile (30 : 70), and the flow rate was 0.4 mL/min.
(§3) The plasma concentration-time data were analyzed by non-compartmental analysis. The area under the plasma concentration-time curve (AUC0-4) was obtained by application of the trapezoidal rule from time 0 to 4 h. AUC from 0 to infinity (AUCinf) was estimated by extrapolation to infinity.

in vivo = details: rat, plasma, intravenous
Method: as §1, §2, §3

[3] = control rats, 0 min after iv metformin 30 mg/kg or cephalexin 10 mg/kg, individual rat
[4] = control rats, 0.5 min after iv metformin 30 mg/kg or cephalexin 10 mg/kg (creatinine endogenous), individual rat
[5] = control rats, 2 min after iv metformin 30 mg/kg or cephalexin 10 mg/kg, individual rat
[6] = control rats, 5 min after iv metformin 30 mg/kg or cephalexin 10 mg/kg, individual rat
[7] = control rats, 30 min after iv metformin 30 mg/kg or cephalexin 10 mg/kg (creatinine endogenous), individual rat
[8] = control rats, 60 min after iv metformin 30 mg/kg or cephalexin 10 mg/kg (creatinine endogenous), individual rat
[9] = control rats, iv metformin 30 mg/kg, individual rat
[10] = hyperuricemic rats, 0 min after iv metformin 30 mg/kg or cephalexin 10 mg/kg, individual rat
[11] = hyperuricemic rats, 0.5 min after iv metformin 30 mg/kg or cephalexin 10 mg/kg (creatinine endogenous), individual rat
[12] = hyperuricemic rats, 2 min after iv metformin 30 mg/kg or cephalexin 10 mg/kg, individual rat
[13] = hyperuricemic rats, 30 min after iv metformin 30 mg/kg or cephalexin 10 mg/kg (creatinine endogenous), individual rat
[14] = hyperuricemic rats, 60 min after iv metformin 30 mg/kg or cephalexin 10 mg/kg (creatinine endogenous), individual rat
[15] = hyperuricemic rats, iv metformin 30 mg/kg, individual rat
[16] = 30 mg/kg, control rats, iv metformin 30 mg/kg, individual rat
[17] = 30 mg/kg, hyperuricemic rats, iv metformin 30 mg/kg, individual rat
[18] = control rats, iv metformin 30 mg/kg or cephalexin 10 mg/kg, mean n=3
[19] = hyperuricemic rats, iv metformin 30 mg/kg or cephalexin 10 mg/kg, mean n=3

For `CN(C)C(=N)N=C(N)N` [Metformin, metformin], the fu [1] is listed as 0.85 [27], the Plasma concentration [2, 3] is listed as 750 µM and 1198 µM and the Plasma concentration [2, 4] is listed as 571 µM and 817 µM. For the same compound, the Plasma concentration [2, 5] was 293 µM and 304 µM, the Plasma concentration [2, 6] was 154 µM and 164 µM and the “Urinary recovery (cumulative)” value ([2]; control rats, 20 min after iv metformin 30 mg/kg, individual rat) was 26.0 % of dose and 21.2 % of dose and 46.7 % of dose. For the same compound, the Plasma concentration [2, 7] was 33.2 µM and 34.5 µM, the “Urinary recovery (cumulative)” value ([2]; control rats, 30 min after iv metformin 30 mg/kg, individual rat) was 43.9 % of dose and 27.9 % of dose and 51.8 % of dose and the Plasma concentration [2, 8] was 13.0 µM and 12.8 µM. For the same compound, the “Urinary recovery (cumulative)” value ([2]; control rats, 60 min after iv metformin 30 mg/kg, individual rat) was 44.6 % of dose and 64.4 % of dose, the “Urinary recovery (cumulative)” value ([2]; control rats, 120 min after iv metformin 30 mg/kg, individual rat) was 63.3 % of dose and 72.5 % of dose and the “Urinary recovery (cumulative)” value ([2]; control rats, 240 min after iv metformin 30 mg/kg, individual rat) was 72.0 % of dose and 76.4 % of dose. For the same compound, the “Kp, kidney” value ([2]; control rats, individual rat) was 2.8 and 35.8 and 11.4, the AUC0-4 [2, 9] was 5208 µM·min and 5490 µM·min and the AUCinf [2, 9] was 5393 µM·min and 5550 µM·min. The CLR [2, 9] was 1.42 L/h/kg, the Plasma concentration [2, 10] was 796 µM and 923 µM and the Plasma concentration [2, 11] was 780 µM and 862 µM. For the same compound, the Plasma concentration [2, 12] was 336 µM and 407 µM, the Plasma concentration ([2]; hyperuricemic rats, 5 min after iv metformin 30 mg/kg or cephalexin 10 mg/kg, individual rat) was 86 µM and 154 µM and 193 µM and the “Urinary recovery (cumulative)” value ([2]; hyperuricemic rats, 10 min after iv metformin 30 mg/kg, individual rat) was 16.7 % of dose and 11.6 % of dose. For the same compound, the “Urinary recovery (cumulative)” value ([2]; hyperuricemic rats, 20 min after iv metformin 30 mg/kg, individual rat) was 26.1 % of dose and 20.0 % of dose, the Plasma concentration [2, 13] was 54.0 µM and 44.1 µM and the “Urinary recovery (cumulative)” value ([2]; hyperuricemic rats, 30 min after iv metformin 30 mg/kg, individual rat) was 31.6 % of dose and 27.5 % of dose. The Plasma concentration [2, 14] was 26.4 µM and 27.5 µM, the “Urinary recovery (cumulative)” value ([2]; hyperuricemic rats, 60 min after iv metformin 30 mg/kg, individual rat) was 41.1 % of dose and 37.0 % of dose and the “Urinary recovery (cumulative)” value ([2]; hyperuricemic rats, 120 min after iv metformin 30 mg/kg, individual rat) was 49.6 % of dose and 47.8 % of dose. For the same compound, the “Urinary recovery (cumulative)” value ([2]; hyperuricemic rats, 240 min after iv metformin 30 mg/kg, individual rat) was 63.2 % of dose and 59.1 % of dose, the “Kp, kidney” value ([2]; hyperuricemic rats, individual rat) was 94.7 and 122.2 and 54.1 and the AUC0-4 [2, 15] was 7033 µM·min and 4854 µM·min. For the same compound, the AUCinf [2, 15] was 7159 µM·min and 4997 µM·min, the CLR [2, 15] was 0.858 L/h/kg and 1.42 L/h/kg and the “(CLR/fu)/CLInulin Fold Change” value ([2]; hyperuricemic vs control rats) was 1.00. For the same compound, the “AUC0-4 Fold Change” value ([2]; hyperuricemic vs control rats) was 1.10, the “AUCinf Fold Change” value ([2]; hyperuricemic vs control rats) was 1.10 and the “CLR Fold Change” value ([2]; hyperuricemic vs control rats) was 0.80. The “Kp, kidney Fold Change” value ([2]; hyperuricemic vs control rats) was 5.44, the “Urinary Recovery Fold Change” value ([2]; hyperuricemic vs control rats) was 0.85 and the CL renal [2, 16] was 1.3 L/h/kg. For the same compound, the CL renal [2, 17] was 1.01 L/h/kg, the CL renal ([2]; control rats, iv metformin 30 mg/kg or cephalexin 10 mg/kg, creatinine endogenous, mean n=3) was 1.38 L/h/kg and the CL renal ([2]; hyperuricemic rats, iv metformin 30 mg/kg or cephalexin 10 mg/kg, creatinine endogenous, mean n=3) was 1.1 L/h/kg. The concentration at 0 min [2, 3] was 1270 µM, the concentration at 0 min ([2]; control rats, 0 min after iv metformin 30 mg/kg or cephalexin 10 mg/kg, mean n=3) was 1070 µM and the concentration at 0.5 min [2, 4] was 871 µM. It also gave a concentration at 0.5 min ([2]; control rats, 0.5 min after iv metformin 30 mg/kg or cephalexin 10 mg/kg (creatinine endogenous), mean n=3) of 753 µM, a concentration at 2 min [2, 5] of 385 µM and a concentration at 2 min ([2]; control rats, 2 min after iv metformin 30 mg/kg or cephalexin 10 mg/kg, mean n=3) of 328 µM. For the same compound, the concentration at 5 min [2, 6] was 159 µM, the concentration at 5 min ([2]; control rats, 5 min after iv metformin 30 mg/kg or cephalexin 10 mg/kg, mean n=3) was 159 µM and the concentration at 30 min [2, 7] was 37 µM. It also gave a concentration at 30 min ([2]; control rats, 30 min after iv metformin 30 mg/kg or cephalexin 10 mg/kg (creatinine endogenous), mean n=3) of 34.9 µM, a concentration at 60 min [2, 8] of 14.4 µM and a concentration at 60 min ([2]; control rats, 60 min after iv metformin 30 mg/kg or cephalexin 10 mg/kg (creatinine endogenous), mean n=3) of 13.4 µM. The concentration at 0 min [2, 10] was 676 µM, the concentration at 0 min ([2]; hyperuricemic rats, 0 min after iv metformin 30 mg/kg or cephalexin 10 mg/kg, mean n=3) was 798 µM and the concentration at 0.5 min [2, 11] was 578 µM. It also gave a concentration at 0.5 min ([2]; hyperuricemic rats, 0.5 min after iv metformin 30 mg/kg or cephalexin 10 mg/kg (creatinine endogenous), mean n=3) of 740 µM, a concentration at 2 min [2, 12] of 267 µM and a concentration at 2 min ([2]; hyperuricemic rats, 2 min after iv metformin 30 mg/kg or cephalexin 10 mg/kg, mean n=3) of 337 µM. The concentration at 5 min ([2]; hyperuricemic rats, 5 min after iv metformin 30 mg/kg or cephalexin 10 mg/kg, mean n=3) was 144 µM, the concentration at 30 min [2, 13] was 30 µM and the concentration at 30 min ([2]; hyperuricemic rats, 30 min after iv metformin 30 mg/kg or cephalexin 10 mg/kg (creatinine endogenous), mean n=3) was 42.7 µM. For the same compound, the concentration at 60 min [2, 14] was 20.6 µM, the concentration at 60 min ([2]; hyperuricemic rats, 60 min after iv metformin 30 mg/kg or cephalexin 10 mg/kg (creatinine endogenous), mean n=3) was 24.9 µM and the AUC(0-t) ([2]; 30 mg/kg, AUC0-4, control rats, iv metformin 30 mg/kg, individual rat) was 98.2 µM·h. The AUC(0-t) ([2]; 30 mg/kg, AUC0-4, hyperuricemic rats, iv metformin 30 mg/kg, individual rat) was 107 µM·h, the AUC(0-inf) [2, 16] was 99.5 µM·h and the AUC(0-inf) [2, 17] was 109 µM·h. The AUC(0-t) ([2]; AUC0-4, control rats, iv metformin 30 mg/kg or cephalexin 10 mg/kg, creatinine endogenous, mean n=3) was 92.2 µM·h, the AUC(0-t) ([2]; AUC0-4, hyperuricemic rats, iv metformin 30 mg/kg or cephalexin 10 mg/kg, creatinine endogenous, mean n=3) was 102 µM·h and the AUC(0-inf) [2, 18] was 94 µM·h. For the same compound, the AUC(0-inf) [2, 19] was 104 µM·h, the dose excreted at 10 min ([2]; 30 mg/kg, control rats, 10 min after iv metformin 30 mg/kg, mean n=3) was 17.8% and the dose excreted at 20 min ([2]; 30 mg/kg, control rats, 20 min after iv metformin 30 mg/kg, mean n=3) was 31.3%. For the same compound, the dose excreted at 30 min ([2]; 30 mg/kg, control rats, 30 min after iv metformin 30 mg/kg, mean n=3) was 41.2%, the dose excreted at 60 min ([2]; 30 mg/kg, control rats, 60 min after iv metformin 30 mg/kg, individual rat) was 57.8% and the dose excreted at 60 min ([2]; 30 mg/kg, control rats, 60 min after iv metformin 30 mg/kg, mean n=3) was 55.6%. For the same compound, the dose excreted at 120 min ([2]; 30 mg/kg, control rats, 120 min after iv metformin 30 mg/kg, individual rat) was 61.5%, the dose excreted at 120 min ([2]; 30 mg/kg, control rats, 120 min after iv metformin 30 mg/kg, mean n=3) was 65.7% and the dose excreted at 240 min ([2]; 30 mg/kg, control rats, 240 min after iv metformin 30 mg/kg, individual rat) was 75.1%. It also gave a dose excreted at 10 min ([2]; 30 mg/kg, hyperuricemic rats, 10 min after iv metformin 30 mg/kg, individual rat) of 15.5%, a dose excreted at 10 min ([2]; 30 mg/kg, hyperuricemic rats, 10 min after iv metformin 30 mg/kg, mean n=3) of 14.6% and a dose excreted at 20 min ([2]; 30 mg/kg, hyperuricemic rats, 20 min after iv metformin 30 mg/kg, individual rat) of 26.9%. It also gave a dose excreted at 20 min ([2]; 30 mg/kg, hyperuricemic rats, 20 min after iv metformin 30 mg/kg, mean n=3) of 24.3%, a dose excreted at 30 min ([2]; 30 mg/kg, hyperuricemic rats, 30 min after iv metformin 30 mg/kg, individual rat) of 35.7% and a dose excreted at 30 min ([2]; 30 mg/kg, hyperuricemic rats, 30 min after iv metformin 30 mg/kg, mean n=3) of 31.6%. The dose excreted at 60 min ([2]; 30 mg/kg, hyperuricemic rats, 60 min after iv metformin 30 mg/kg, individual rat) was 46%, the dose excreted at 60 min ([2]; 30 mg/kg, hyperuricemic rats, 60 min after iv metformin 30 mg/kg, mean n=3) was 41.4% and the dose excreted at 120 min ([2]; 30 mg/kg, hyperuricemic rats, 120 min after iv metformin 30 mg/kg, individual rat) was 56.1%. The dose excreted at 120 min ([2]; 30 mg/kg, hyperuricemic rats, 120 min after iv metformin 30 mg/kg, mean n=3) was 51.1%, the dose excreted at 240 min ([2]; 30 mg/kg, hyperuricemic rats, 240 min after iv metformin 30 mg/kg, individual rat) was 67.5% and the dose excreted at 240 min ([2]; 30 mg/kg, hyperuricemic rats, 240 min after iv metformin 30 mg/kg, mean n=3) was 63.3%. The dose excreted [2, 18] was 74.5%, the dose excreted [2, 19] was 63.3% and the concentration at 15 min (in vivo) was 67.3 µM. It also gave a concentration at 120 min (in vivo) of 3.94 µM.
